From ChEMBL document CHEMBL6182868, “Structural simplification of quaternary benzophenanthridine alkaloids generating a candidate for the treatment of non-small cell lung cancer” (Eur J Med Chem, 2025)
Activity calls are given as the source filed them. No cut-off for these calls is given here.

Tests used:
Homo sapiens [1] = species: Homo sapiens; assay: Inhibition of TrxR (unknown origin) assessed as remaining activity at 50 uM incubated for 2 hrs in presence of NADPH by DTNB assay relative to control
HepG2 = assay: Cytotoxicity against human HepG2 cells incubated for 24 to 48 hrs by MTT assay; type: functional, cell-based
HeLa [2] = assay: Cytotoxicity against human HeLa cells incubated for 24 to 48 hrs by MTT assay; type: functional, cell-based
A549 [3] = assay: Cytotoxicity against human A549 cells incubated for 24 to 48 hrs by MTT assay; type: functional, cell-based
[4] = Inhibition of TrxR (unknown origin) incubated for 2 hrs in presence of NADPH by DTNB assay; set-up: species or system Homo sapiens
[5] = Inhibition of TrxR in human A549 cells incubated for 24 hrs by endpoint insulin reduction assay; type: cell-based
A549 [6] = assay: Cytotoxicity against human A549 cells assessed as cell viability at 1 to 20 uM cotreated with BSO incubated for 24 hrs by MTT assay; type: functional, cell-based; settings: dose 1-20 µM
HeLa [7] = assay: Cytotoxicity against human HeLa cells harboring shNT-negative control assessed as cell viability at 1 to 5 uM incubated for 48 hrs by MTT assay; type: functional, cell-based; settings: dose 1-5 µM
A549 [8] = assay: Inhibition of colony formation in human A549 cells assessed as decrease in number of colonies incubated for 1 day in 5% CO2 at 37 degC followed by replacement with fresh culture medium for every 2 days and measured after 10 days by crystal violet staining based analysis; type: functional, cell-based; settings: dose 0.25-0.5 µM
A549 [9] = assay: Antitumor activity against ip dosed human A549 cells xenografted in male BALB/c nude mouse assessed as tumor size administered and measured every 3 days for 21 days; type: functional, organism-based; settings: dose 3-6 mg/kg, time 21.0 day
HeLa [10] = assay: Cytotoxicity against human HeLa cells harboring shTrxR1 assessed as cell viability at 1 to 5 uM incubated for 48 hrs by MTT assay; type: functional, cell-based; settings: dose 1-5 µM
[11] = AUC (0 to 24 hrs) in Sprague-Dawley rat at 10 mg/kg, po measured up to 24 hrs by LC-MS/MS analysis; type: ADME, organism-based; settings: in vivo
A549 [12] = assay: Antitumor activity against ip dosed human A549 cells xenografted in male BALB/c nude mouse assessed as tumor weight administered and measured every 3 days for 21 days; type: functional, organism-based; settings: dose 3-6 mg/kg, time 21.0 day
A549 [13] = assay: Induction of oxidative stress in human A549 cells assessed as activation of ERK pathway by measuring change in protein level incubated for 24 hrs; type: functional, cell-based
A549 [14] = assay: Induction of apoptosis in human A549 cells assessed as increase in caspase 3 activation incubated for 24 hrs by colorimetric assay; type: functional, cell-based; settings: dose 1-5 µM
A549 [15] = assay: Induction of apoptosis in human A549 cells assessed as increase in Bax protein expression at 2 to 5 uM incubated for 24 hrs by Western blot analysis; type: functional, cell-based; settings: dose 2-5 µM
A549 [16] = assay: Induction of apoptosis in human A549 cells assessed as increase in blue fluorescence at 1 to 5 uM incubated for 24 hrs by Hoechst 33342 staining based fluorescence microscopic analysis; type: functional, cell-based; settings: dose 1-5 µM
[17] = Toxicity in male BALB/c nude mouse xenografted with human A549 cells assessed as effect on liver at 3 to 6 mg/kg, ip administered for 21 days; type: organism-based; settings: in vivo, 504 h, dose 3-6 mg/kg, time 21 day
[18] = Cytotoxicity against human LO2 cells assessed as cell viability at 1 to 20 uM incubated for 24 hrs by MTT assay; type: toxicity, cell-based, L02
A549 [19] = assay: Inhibition of TrxR in human A549 cells assessed as decrease in green fluorescence intensity incubated for 24 hrs by TRFS-green staining based fluorescent microscopic analysis; type: cell-based; settings: dose 1-5 µM
A549 [20] = assay: Induction of apoptosis in human A549 cells assessed as small and condensed nuclei at 1 to 5 uM incubated for 24 hrs by Hoechst 33342 staining based fluorescence microscopic analysis; type: functional, cell-based; settings: dose 1-5 µM
[21] = Toxicity in male BALB/c nude mouse xenografted with human A549 cells assessed as effect on lung at 3 to 6 mg/kg, ip administered for 21 days; type: organism-based; settings: in vivo, 504 h, dose 3-6 mg/kg, time 21 day
A549 [22] = assay: Antitumor activity against human A549 cells xenografted in male BALB/c nude mouse assessed as tumor growth inhibition at 3 to 6 mg/kg, ip administrated for every 3 days and measured after 21 days relative to control; type: functional; settings: dose 3-6 mg/kg, time 21 day
[23] = Toxicity in male BALB/c nude mouse xenografted with human A549 cells assessed as effect on body weight 3 to 6 mg/kg, ip administered and measured every 3 days for 21 days; type: organism-based; settings: in vivo, 504 h, dose 3-6 mg/kg, time 21 day
[24] = GSH reactivity in TE buffer assessed as remaining concentration of compound incubated 1 to 4 hrs at 37 degreeC by HPLC analysis; type: physicochemical; settings: TE buffer with GSH, time 1-4 hrs, read-out: Stability
A549 [25] = assay: Induction of oxidative stress in human A549 cells assessed as decrease in GSH/GSSG ratio at 1 to 5 uM incubated for 24 hrs by microplate reader analysis; type: functional, cell-based; settings: dose 1-5 µM
A549 [26] = assay: Induction of oxidative stress in human A549 cells assessed as increase in GSSG levels at 1 to 5 uM incubated for 24 hrs by microplate reader analysis; type: functional, cell-based; settings: dose 1-5 µM
A549 [27] = assay: Induction of oxidative stress in human A549 cells assessed as decrease in intracellular total thiol levels at 5 uM incubated for 24 hrs by DTNB titration based microplate reader analysis relative to control; type: functional; set-up: scale not given: the % may be the effect or the level left
A549 [28] = assay: Cytotoxicity against human A549 cells assessed as cell viability at 1 to 20 uM cotreated with NAC incubated for 24 hrs by MTT assay; type: functional, cell-based; settings: dose 1-20 µM
A549 [29] = assay: Induction of apoptosis in human A549 cells assessed as conversion of caspase 3 to cleaved caspase 3 at 2 to 5 uM incubated for 24 hrs by Western blot analysis; type: functional, cell-based; settings: dose 2-5 µM
A549 [30] = assay: Induction of apoptosis in human A549 cells assessed as decrease in Bcl-2 protein expression at 2 to 5 uM incubated for 24 hrs by Western blot analysis; type: functional, cell-based; settings: dose 2-5 µM
A549 [31] = assay: Induction of apoptosis in human A549 cells assessed as apoptotic cell count incubated for 6 hrs by annexin V-FITC and PI staining based flow cytometric analysis; type: functional; settings: dose 1-5 µM
[32] = Toxicity in male BALB/c nude mouse xenografted with human A549 cells assessed as effect on kidney at 3 to 6 mg/kg, ip administered for 21 days; type: organism-based; settings: in vivo, 504 h, dose 3-6 mg/kg, time 21 day
[33] = Toxicity in male BALB/c nude mouse xenografted with human A549 cells assessed as effect on heart at 3 to 6 mg/kg, ip administered for 21 days; type: organism-based; settings: in vivo, 504 h, dose 3-6 mg/kg, time 21 day
Homo sapiens [34] = species: Homo sapiens; assay: Inhibition of TrxR U498C mutant (unknown origin) incubated for 2 hrs in presence of NADPH by DTNB assay
[35] = Half life in Sprague-Dawley rat at 10 mg/kg, po measured up to 24 hrs by LC-MS/MS analysis; type: ADME, organism-based; settings: in vivo
A549 [36] = assay: Induction of ROS accumulation in human A549 cells assessed as increase in fluorescence intensity incubated for 6 hrs by DCFH-DA/DHE staining based analysis; type: functional, cell-based; settings: dose 1-5 µM
[37] = Toxicity in male BALB/c nude mouse xenografted with human A549 cells assessed as effect on spleen at 3 to 6 mg/kg, ip administered for 21 days; type: organism-based; settings: in vivo, 504 h, dose 3-6 mg/kg, time 21 day
[38] = Tmax in Sprague-Dawley rat at 10 mg/kg, po measured up to 24 hrs by LC-MS/MS analysis; type: ADME, organism-based; settings: in vivo
[39] = Cys reactivity in TE buffer assessed as remaining concentration of compound incubated 1 to 4 hrs at 37 degreeC by HPLC analysis; type: physicochemical; settings: TE buffer with cysteine, time 1-4 hrs, read-out: Activity

## CN1Cc2ccccc2-c2ccc3ccccc3c21
Homo sapiens [1]
  Activity: 97%
HepG2
  IC50: > 50 µM
HeLa [2]
  IC50: > 50 µM
A549 [3]
  IC50: > 50 µM

## C[n+]1cc2ccccc2c2ccc3ccccc3c21
Homo sapiens [1]
  Activity: 64%
HepG2
  IC50: 5.4 µM
HeLa [2]
  IC50: 5.2 µM
A549 [3]
  IC50: 7.3 µM

## c1ccc2c(c1)cnc1ccccc12 [PHENANTHRIDINE]
HepG2
  IC50: > 50 µM
[4]
  IC50: > 50 µM
HeLa [2]
  IC50: > 50 µM
A549 [3]
  IC50: > 50 µM

## C[n+]1cc2c3c(ccc2c2ccc4cc5c(cc4c21)OCO5)OCO3 [SANGUINARIUM CHLORIDE]
HepG2
  IC50: 2.6 µM
[4]
  IC50: 23 µM
HeLa [2]
  IC50: 2.4 µM
A549 [3]
  IC50: 6.9 µM

## COc1cc(OC)c2c(c1)ncc1ccccc12
HepG2
  IC50: > 50 µM
[4]
  IC50: > 50 µM
HeLa [2]
  IC50: > 50 µM
A549 [3]
  IC50: > 50 µM

## COc1cc2c(c(OC)c1OC)c1ccccc1c[n+]2C
HepG2
  IC50: 21.9 µM
[4]
  IC50: > 50 µM
HeLa [2]
  IC50: 22.5 µM
A549 [3]
  IC50: 16.9 µM

## COc1cc2c[n+](C)c3c4cc5c(cc4ccc3c2cc1OC)OCO5 [NITIDINE CHLORIDE]
[5]
  IC50: 12.2 µM
HepG2
  IC50: 1.8 µM
[4]
  IC50: 38.2 µM
HeLa [2]
  IC50: 1.7 µM
A549 [3]
  IC50: 4 µM

## COc1ccc2c(c[n+](C)c3c4cc5c(cc4ccc23)OCO5)c1OC [CHELERYTHRINE CHLORIDE]
HepG2
  IC50: 8.3 µM
[4]
  IC50: 14.9 µM
HeLa [2]
  IC50: 9.6 µM
A549 [3]
  IC50: 8 µM

## Cc1ccc2ncc3ccccc3c2c1
HepG2
  IC50: > 50 µM
[4]
  IC50: > 50 µM
HeLa [2]
  IC50: > 50 µM
A549 [3]
  IC50: > 50 µM

## C[n+]1cc2ccccc2c2cc(F)ccc21
HepG2
  IC50: 34.7 µM
[4]
  IC50: > 50 µM
HeLa [2]
  IC50: 31.4 µM
A549 [3]
  IC50: > 50 µM

## c1ccc2c(c1)cnc1c3ccccc3ccc21
Homo sapiens [1]
  Activity: 93%
HepG2
  IC50: > 50 µM
HeLa [2]
  IC50: > 50 µM
A549 [3]
  IC50: > 50 µM

## Fc1ccc2ncc3ccccc3c2c1
HepG2
  IC50: > 50 µM
[4]
  IC50: > 50 µM
HeLa [2]
  IC50: > 50 µM
A549 [3]
  IC50: > 50 µM

## COc1cc2ncc3ccccc3c2c(OC)c1OC
HepG2
  IC50: > 50 µM
[4]
  IC50: > 50 µM
HeLa [2]
  IC50: > 50 µM
A549 [3]
  IC50: > 50 µM

## COc1ccc2ncc3ccccc3c2c1
HepG2
  IC50: > 50 µM
[4]
  IC50: > 50 µM
HeLa [2]
  IC50: > 50 µM
A549 [3]
  IC50: > 50 µM

## COc1ccc2c(c1)c1ccccc1c[n+]2C
HepG2
  IC50: 19.5 µM
[4]
  IC50: > 50 µM
HeLa [2]
  IC50: 19.5 µM
A549 [3]
  IC50: 17.6 µM

## Cc1ccc2c(c1)c1ccccc1c[n+]2C
HepG2
  IC50: 15 µM
[4]
  IC50: > 50 µM
HeLa [2]
  IC50: 12.3 µM
A549 [3]
  IC50: 18.5 µM

## COc1cc(OC)c2c3ccccc3c[n+](C)c2c1.[I-]
A549 [6]
  Activity: Active
HeLa [7]
  Activity: Active
A549 [8]
  inhibition: Dose-dependent-effect
A549 [9]
  Activity: Dose-dependent-effect
HeLa [10]
  Activity: Active; Compound Exhibited Increased Sensitivity Compared To Hela-Shnt Cells (Negative Control)
[11]
  AUC: 1060 ng·h/mL
A549 [12]
  Activity: Dose-dependent-effect
A549 [13]
  Activity: Active
A549 [14]
  Activity: Dose-dependent-effect
A549 [15]
  Activity: Dose-dependent-effect
A549 [16]
  Activity: Active
[17]
  Activity: Non-toxic
[18]
  IC50 at 24 h: > 20 µM
A549 [19]
  inhibition: Dose-dependent-effect
[5]
  IC50: 3.94 µM
A549 [20]
  Activity: Active
[21]
  Activity: Non-toxic
HepG2
  IC50: 5 µM
A549 [22]
  TGI: 65.49%
[4]
  IC50: 10.2 µM
[23]
  Activity: Non-toxic
[24]
  remaining at 50 µM: 94%
A549 [25]
  Activity: inactive
A549 [26]
  Activity: Active
A549 [27]
  Activity: ~50%
HeLa [2]
  IC50: 3.4 µM
A549 [28]
  Activity: inactive
A549 [29]
  Activity: Dose-dependent-effect
A549 [30]
  Activity: Dose-dependent-effect
A549 [31]
  Activity: Dose-dependent-effect
[32]
  Activity: Non-toxic
[33]
  Activity: Non-toxic
A549 [3]
  IC50: 2.1 µM
Homo sapiens [34]
  inhibition: Active; Minimal Inhibition Was Observed
[35]
  half-life: 155 min
A549 [36]
  Activity: Dose-dependent-effect
[37]
  Activity: Non-toxic
[38]
  Tmax: 2 h
[39]
  remaining at 50 µM: 102%

## C[n+]1cc2ccccc2c2ccccc21
HepG2
  IC50: 32.3 µM
[4]
  IC50: > 50 µM
HeLa [2]
  IC50: 28 µM
A549 [3]
  IC50: 35.8 µM
